Assays:
[1] = tested on: Res-A10-Right cut (DNA, aptamer) GTATTGCGGAGGAAGGTTTTTAACCTTCGGGGA; experiment: ITC; conditions: 100 mM NaCl, 5 mM MgCl2, 20 mM HEPES pH 7.6, 10 °C
[2] = tested on: A10-excised Apt (DNA, aptamer) GTATTGCGGAGGAAGGTTTTTAACCTTCGGGG; experiment: ITC; conditions: 100 mM NaCl, 5 mM MgCl2, 20 mM HEPES pH 7.6, 10 °C
[3] = tested on: Duplex-1 (DNA, hairpin) GGGGGTATTGCCCCCGCAAGGTTTTTAACCTTG; experiment: SYBR Green I fluorescence; conditions: 100 mM NaCl, 5 mM MgCl2; 20 mM HEPES pH 7.6; 12.5 nM SYBR Green I; 2 mM
[4] = tested on: Res-A10-Right cut (DNA, aptamer) GTATTGCGGAGGAAGGTTTTTAACCTTCGGGGA; experiment: SYBR Green I fluorescence titration; conditions: 100 mM NaCl, 5 mM MgCl2, 20 mM HEPES pH 7.6
[5] = tested on: Res-A10-Left cut (DNA, aptamer) AGTATTGCGGAGGAAGGTTTTTAACCTTCGGGG; experiment: SYBR Green I fluorescence titration; conditions: 100 mM NaCl, 5 mM MgCl2; 20 mM HEPES pH 7.6; SYBR Green I (50 nM) displaced; apparent
[6] = tested on: One-site Apt (DNA, aptamer) ACCTTCGGGGAGTATTGCGGAGGAAGGT; experiment: ITC; conditions: 100 mM NaCl, 5 mM MgCl2; 20 mM HEPES pH 7.6, 10 °C, one-site model
[7] = tested on: Wide-type adenosine Apt (wild-type aptamer) (DNA, aptamer) ACCTGGGGGAGTATTGCGGAGGAAGGT; experiment: SYBR Green I fluorescence; conditions: 100 mM NaCl, 5 mM MgCl2, 20 mM HEPES pH 7.6, 2 mM
[8] = tested on: Duplex-2 (DNA, hairpin) GTATTGCGCCCCGAAGGTTTTTAACCTTCGGGG; experiment: SYBR Green I fluorescence; conditions: 100 mM NaCl, 5 mM MgCl2; 20 mM HEPES pH 7.6; 12.5 nM SYBR Green I; 2 mM
[9] = tested on: A10-excised Apt (DNA, aptamer) GTATTGCGGAGGAAGGTTTTTAACCTTCGGGG; experiment: SYBR Green I fluorescence titration; conditions: 100 mM NaCl, 5 mM MgCl2, 20 mM HEPES pH 7.6
[10] = tested on: Res-A10-Right cut (DNA, aptamer) GTATTGCGGAGGAAGGTTTTTAACCTTCGGGGA; experiment: SYBR Green I fluorescence; conditions: 100 mM NaCl, 5 mM MgCl2; 20 mM HEPES pH 7.6; SYBR Green I displaced; 2 mM
[11] = tested on: A10-excised Apt (DNA, aptamer) GTATTGCGGAGGAAGGTTTTTAACCTTCGGGG; experiment: SYBR Green I fluorescence; conditions: 100 mM NaCl, 5 mM MgCl2; 20 mM HEPES pH 7.6; SYBR Green I displaced; 2 mM
[12] = tested on: Res-A10-Left cut (DNA, aptamer) AGTATTGCGGAGGAAGGTTTTTAACCTTCGGGG; experiment: SYBR Green I fluorescence; conditions: 100 mM NaCl, 5 mM MgCl2; 20 mM HEPES pH 7.6; SYBR Green I displaced; drop two thirds of adenosine's
[13] = SYBR Green I (50 nM) displaced, apparent
[14] = 1 mM AMP in syringe, extremely weak, undetectable heat

binding ([7]; 50 nM SYBR Green I displaced) | binding [10] | binding [11] | binding ([7]; SYBR Green I displaced) | SMILES | other results
yes | – | – | – | Nc1ncnc2c1ncn2[C@@H]1O[C@H](CO)[C@@H](O)[C@H]1O | Kd ([1]; one-site model): 21.0 ± 3.8 µM; Kd ([2]; one-site model): 14.8 ± 2.1 µM; binding [3]: no; half saturation [4, 13]: 0.94 mM; Kd [5]: 570 µM; Kd [6]: 2.8 ± 0.1 µM; binding [8]: no; Kd [9, 13]: 370 µM
yes | no | no | – | Nc1ncnc2c1ncn2[C@@H]1O[C@H](COP(=O)(O)OP(=O)(O)OP(=O)(O)O)[C@@H](O)[C@H]1O | –
– | no | no | no | Nc1ccn([C@@H]2O[C@H](CO)[C@@H](O)[C@H]2O)c(=O)n1 | binding [8]: no
– | no | no | no | O=c1ccn([C@@H]2O[C@H](CO)[C@@H](O)[C@H]2O)c(=O)[nH]1 | –
– | – | no | no | Nc1nc2c(ncn2[C@@H]2O[C@H](CO)[C@@H](O)[C@H]2O)c(=O)[nH]1 | –
– | – | no | no | Cn1c(=O)c2[nH]cnc2n(C)c1=O | –
yes | – | – | – | Nc1ncnc2c1ncn2[C@@H]1O[C@H](COP(=O)(O)O)[C@@H](O)[C@H]1O | binding [1, 14]: no; binding [2, 14]: no; binding ([4]; SYBR Green I displaced, no binding in titration): no; Kd [6]: 13.5 ± 1.6 µM; binding ([9]; SYBR Green I displaced, up to 2 mM): no; binding [12]: yes
